Test results: patent US20050208496A1, “Methods of testing for bronchial asthma or chronic obstructive pulmonary disease” (Genox Research, Inc., priority 2002, published 2005)
“And” between values parts separate entries of the source, which are not always exact repeats. Equal values may be shown once.

Tested on: mouse counterpart genes
Experiment: Mouse GeneChip (MG-U74A to MG-U74C) analysis of lung and trachea of the OVA antigen-exposed bronchial hypersensitivity model, S-Sal group versus S-OVA group
Format: in vivo
[1] = S-Sal vs S-OVA group, 2nd, P/A: P
[2] = S-Sal vs S-OVA group, 3rd, P/A: A
[3] = S-Sal vs S-OVA group, 3rd, P/A: P

ovalbumin [OVA antigen, ovalbumin antigen used for sensitization and inhalation to induce bronchial hypersensitivity in mice]
Fold Change, cathepsin C (mouse Probe ID 101019_at) [1]: 1.1 | Fold Change, dual specificity phosphatase 14 (mouse Probe ID 162702_at) [1]: 1.1 | Fold Change, expressed sequence AI839647 (mouse Probe ID 110839_at) [1]: 0.833 | Fold Change, integrin-associated protein (mouse Probe ID 103611_at) [1]: 1 | Fold Change, neutrophil cytosolic factor 2 (mouse Probe ID 102326_at) [1]: 2.2 | Fold Change, reticulocalbin 2 (mouse Probe ID 93281_at) [1]: 0.833 | Fold Change, ribosomal protein S16 (mouse Probe ID 97647_at) [1]: 1 | Fold Change, serine (or cysteine) proteinase inhibitor, clade B (ovalbumin), member 2 (mouse Probe ID 92978_s_at) [1]: 0.455 | Fold Change, signal transducer and activator of transcription 1 (mouse Probe ID 101465_at) [1]: 1.6 | Fold Change, signal transducer and activator of transcription 1 (mouse Probe ID 114635_at) [1]: 1.9 | Fold Change, zinc finger protein 263 (mouse Probe ID 109154_at) [1]: 0.833 | Fold Change, DNA-damage inducible transcript 3 (mouse Probe ID 101429_at) [2]: 0.625 | Fold Change, RAS guanyl releasing protein 1 (mouse Probe ID 98307_at) [2]: 1.3 | Fold Change, RAS guanyl releasing protein 1 (mouse Probe ID 167498_i_at) [2]: 2.4 | Fold Change, RIKEN cDNA A2301D9K23 gene (mouse Probe ID 163453_at) [2]: 1.4 | Fold Change, acid phosphatase 5, tartrate resistant (mouse Probe ID 162543_r_at) [2]: 8.7 | Fold Change, cathepsin C (mouse Probe ID 161251_f_at) [2]: 1.2 | Fold Change, dual specificity phosphatase 14 (mouse Probe ID 165144_r_at) [2]: 1.1 | Fold Change, dual specificity phosphatase 14 (mouse Probe ID 171285_at) [2]: 2.3 | Fold Change, keratin complex 1, acidic, gene 16 (mouse Probe ID 103589_at) [2]: 1.1 | Fold Change, keratin complex 1, acidic, gene 16 (mouse Probe ID 164428_i_at) [2]: 0.625 | Fold Change, nuclear factor, interleukin 3, regulated (mouse Probe ID 164758_i_at) [2]: 1.3 | Fold Change, ribosomal protein S16 (mouse Probe ID 169860_r_at) [2]: 1.1 | Fold Change, serine (or cysteine) proteinase inhibitor, clade B (ovalbumin), member 2 (mouse Probe ID 92978_s_at) [2]: 1.7 | Fold Change, serine (or cysteine) proteinase inhibitor, clade B (ovalbumin), member 2 (mouse Probe ID 137166_r_at) [2]: 1.2 | Fold Change, ubiquitin D (mouse Probe ID 92715_at) [2]: 0.625 | Fold Change, ubiquitin D (mouse Probe ID 168938_r_at) [2]: 1.4 | Fold Change, ubiquitin D (mouse Probe ID 169362_f_at) [2]: 0.667 | Fold Change, DEAD (aspartate-glutamate-alanine-aspartate) box polypeptide 5 (mouse Probe ID 93493_at) [3]: 1.1 | Fold Change, DEAD (aspartate-glutamate-alanine-aspartate) box polypeptide 5 (mouse Probe ID 113899_at) [3]: 1.4 | Fold Change, RIKEN cDNA 4933419D20 gene (mouse Probe ID 97442_at) [3]: 0.833 | Fold Change, RIKEN cDNA 4933419D20 gene (mouse Probe ID 112237_at) [3]: 1 | Fold Change, acid phosphatase 5, tartrate resistant (mouse Probe ID 98859_at) [3]: 1.7 | Fold Change, cathepsin C (mouse Probe ID 101019_at) [3]: 1 | Fold Change, cytokine inducible SH2-containing protein 1 (mouse Probe ID 92832_at) [3]: 1.5 | Fold Change, dual specificity phosphatase 14 (mouse Probe ID 162702_at) [3]: 1 | Fold Change, expressed sequence AI463430 (mouse Probe ID 112883_at) [3]: 1.5 | Fold Change, fatty acid binding protein 4, adipocyte (mouse Probe ID 100567_at) [3]: 1.1 | Fold Change, integrin-associated protein (mouse Probe ID 103611_at) [3]: 1 | Fold Change, neutrophil cytosolic factor 2 (mouse Probe ID 102326_at) [3]: 1.2 | Fold Change, ribosomal protein S16 (mouse Probe ID 97647_at) [3]: 1 | Fold Change, signal transducer and activator of transcription 1 (mouse Probe ID 101465_at) [3]: 1 | Fold Change, signal transducer and activator of transcription 1 (mouse Probe ID 114635_at) [3]: 1.1 | Fold Change, ubiquitin fusion degradation 1 like (mouse Probe ID 93303_at) [3]: 1.3 | Fold Change, zinc finger protein 263 (mouse Probe ID 109154_at) [3]: 1.3 | Fold Change, A kinase (PRKA) anchor protein 10 (mouse probe 163162_at) (mouse, in vivo): 0.769 | Fold Change, DNA segment. Chr 16. ERATO Doi 269, expressed (mouse probe 97821_at) (mouse, in vivo): 0.909 | Fold Change, DNA segment. Chr 16. ERATO Doi 269, expressed (mouse probe 97822_at) (mouse, in vivo): 0.909 | Fold Change, DnaJ (Hsp40) homolog, subfamily A, member 1 (mouse Probe ID 97261_at) (mouse, in vivo): 0.909 | Fold Change, ESTs AI844322 (mouse Probe ID 110469_at) (mouse, in vivo): 0.909 and 0.769 | Fold Change, MP and activin membrane-bound inhibitor, homolog (Xanopus laevis) (mouse probe 162531_at) (mouse, in vivo): 0.769 | Fold Change, RIKEN cDNA 6330404C01 gene (mouse Probe ID 166590_at) (mouse, in vivo): 0.769 | Fold Change, RIKEN cDNA A2301D9K23 gene (mouse Probe ID 166475_r_at) (mouse, in vivo): 0.714 | Fold Change, SAM domain and HD domain, 1 (mouse Probe ID 103080_at) (mouse, in vivo): 0.909 | Fold Change, a disintegrin and metalloprotease domain 8 (mouse probe 103024_at) (mouse, in vivo): 0.769 | Fold Change, a disintegrin and metalloprotease domain 28 (mouse probe 101723_r_at) (mouse, in vivo): 0.714 and 0.769 | Fold Change, acid phosphatase 5, tartrate resistant (mouse Probe ID 98859_at) (mouse, in vivo): 0.769 | Fold Change, cadherin 6 (mouse Probe ID 101730_at) (mouse, in vivo): 0.714 | Fold Change, cathepsin C (mouse Probe ID 101020_at) (mouse, in vivo): 0.909 | Fold Change, cholesterol 25-hydroxylase (mouse probe 133666_at) (mouse, in vivo): 0.909 and 0.769 | Fold Change, claudin 5 (mouse probe 104516_at) (mouse, in vivo): 0.769 | Fold Change, decay accelerating factor 1 (mouse probe 164905_r_at) (mouse, in vivo): 0.769 | Fold Change, dipeptidylpeptidase 4 (mouse Probe ID 92634_at) (mouse, in vivo): 0.714 | Fold Change, dual specificity phosphatase 14 (mouse Probe ID 171285_at) (mouse, in vivo): 0.909 | Fold Change, expressed sequence AI463430 (mouse Probe ID 112883_at) (mouse, in vivo): 0.909 | Fold Change, expressed sequence AI839647 (mouse Probe ID 110839_at) (mouse, in vivo): 0.909 | Fold Change, fatty acid binding protein 4, adipocyte (mouse Probe ID 100567_at) (mouse, in vivo): 0.714 | Fold Change, fetuin beta (mouse Probe ID 108524_at) (mouse, in vivo): 0.714 | Fold Change, fructose bisphosphatase 1 (mouse Probe ID 96918_at) (mouse, in vivo): 0.769 | Fold Change, growth arrest and DNA-damage-inducible 45 gamma (mouse Probe ID 109336_at) (mouse, in vivo): 0.909 | Fold Change, hydroxysteroid (17-beta) dehydrogenase 2 (mouse Probe ID 101891_at) (mouse, in vivo): 0.909 | Fold Change, hydroxysteroid (17-beta) dehydrogenase 2 (mouse Probe ID 166141_i_at) (mouse, in vivo): 0.714 | Fold Change, hydroxysteroid (17-beta) dehydrogenase 2 (mouse Probe ID 169670_at) (mouse, in vivo): 0.769 and 0.909 | Fold Change, intercellular adhesion molecule (mouse Probe ID 96752_at) (mouse, in vivo): 0.714 | Fold Change, interferon gamma inducible protein 30 (mouse probe 164423_at) (mouse, in vivo): 0.714 | Fold Change, interleukin 1 receptor-like 1 (mouse probe 98501_at) (mouse, in vivo): 0.769 | Fold Change, low density lipoprotein receptor-related protein associated protein 1 (mouse probe 100086_at) (mouse, in vivo): 0.714 | Fold Change, low density lipoprotein receptor-related protein associated protein 1 (mouse probe 161988_f_at) (mouse, in vivo): 0.714 | Fold Change, matrix metalloproteinase 7 (mouse probe 162318_r_at) (mouse, in vivo): 0.769 | Fold Change, membrane-associated protein 17 (mouse probe 96935_at) (mouse, in vivo): 0.909 | Fold Change, neurotrophic tyrosine kinase, receptor type 1 (mouse probe 110116_at) (mouse, in vivo): 0.909 | Fold Change, nitric oxide synthase 2, inducible, macrophage (mouse Probe ID 104420_at) (mouse, in vivo): 0.714 | Fold Change, nuclear factor, interleukin 3, regulated (mouse Probe ID 164758_i_at) (mouse, in vivo): 0.714 | Fold Change, osteoblast specific factor 2 (fasciclin I-like) (mouse Probe ID 92593_at) (mouse, in vivo): 0.909 | Fold Change, phosphotidylinositol transfer protein, beta (mouse probe 102696_s_at) (mouse, in vivo): 0.714 | Fold Change, polycystic kidney disease 2 (mouse probe 100951_at) (mouse, in vivo): 0.769 | Fold Change, procollagen lysine, 2-oxoglutarate 5-dioxygenase 2 (mouse Probe ID 114376_at) (mouse, in vivo): 0.909 | Fold Change, reticulocalbin 2 (mouse Probe ID 93281_at) (mouse, in vivo): 0.909 | Fold Change, serine (or cysteine) proteinase inhibitor, clade B (ovalbumin), member 6 (mouse Probe ID 96060_at) (mouse, in vivo): 0.714 | Fold Change, sialyltransferase 1 (beta-galactoside alpha-2,6-sialyltransferase) (mouse Probe ID 167200_r_at) (mouse, in vivo): 0.769 and 0.909 | Fold Change, thioredoxin reductase 1 (mouse Probe ID 99985_at) (mouse, in vivo): 0.909 | Fold Change, thioredoxin reductase 1 (mouse Probe ID 161284_r_at) (mouse, in vivo): 0.909 and 0.769 | Fold Change, transforming growth factor, beta 2 (mouse Probe ID 93300_at) (mouse, in vivo): 0.769 | Fold Change, transmembrane 4 superfamily member 8 (mouse Probe ID 97912_at) (mouse, in vivo): 0.769 | Fold Change, ubiquitin D (mouse Probe ID 92715_at) (mouse, in vivo): 0.714 | Fold Change, zinc finger protein 263 (mouse Probe ID 109154_at) (mouse, in vivo): 0.769
